Values of other authors, collected in US20020081339A1, “Treatment of inoperable tumors by stereotactic injection of microspheres” (priority 2000, published 2002).

Settings: hydrophilic molecule

O=c1[nH]cc(F)c(=O)[nH]1 [5-FU, 5-fluorouracil]
crossing of the blood-brain barrier: crosses the blood-brain barrier very weakly
